Consider 16 molecules from patent publication US20250115620A1, “BRIDGED TRICYCLIC CARBAMOYLPYRIDONE COMPOUNDS AND USES THEREOF” (Gilead Sciences, Inc., priority 2022, published 2025).

Where two headings read alike, the source gives them in different places. Where only a bound is given, the exact number is not on record here.

One series has as its system HIV-1 (IIIB). Briefly: microbe, parasite or virus in culture. Type of series: cell-based. To be noted: Human immunodeficiency virus 1, IIIB, MT4, 120 h, read-out: MT4 EC50.
For another series, the system named is pLAI reporter virus. Briefly: microbe, parasite or virus in culture. It counts as cell-based, HIV. The settings on record: Human immunodeficiency virus 1, MT4, 72 h.
The next series in a line: in vitro. To be noted: human; for CC50 at 5 days: uninfected MT-4 cells.
Where [1] appears, read: HIV-1 (IIIB) in MT-4 cells, 5 days incubation, Cell Titer Glo.

On to `CC1=NO[C@]2(CC[C@H](C)N3C[C@H]2n2cc(C(=O)NCc4c(F)cc(F)cc4F)c(=O)c(O)c2C3=O)C1` [Example 4, (3′S,5R,7′R)-12′-hydroxy-3,3′-dimethyl-1′,11′-dioxo-N-(2,4,6-trifluorobenzyl)-1′,4′,5′,11′-tetrahydro-3′H,4H,7′H-spiro[isoxazole-5,6′-[2,7]methanopyrido[1,2-a][1,4]diazonine]-10′-carboxamide], for which the results for the EC50 with HIV-1 (IIIB) (setting [1]), with pLAI reporter virus (read-out: RLUC 50% HS EC50) and in the series with pLAI reporter virus (read-out: RLUC CCM EC50) were 5.7 nM, 4.6 nM and 3 nM, respectively. The molecule also returned a CC50 at 5 days in the series “in vitro” of no less than 50000 nM.
Turning to `CC1=NO[C@]2(C1)C[C@H](F)[C@H](C)N1C[C@H]2n2cc(C(=O)NCc3ccc(F)cc3F)c(=O)c(O)c2C1=O` [Example 5, (3′S,4′S,5R,7′R)—N-(2,4-difluorobenzyl)-4′-fluoro-12′-hydroxy-3,3′-dimethyl-1′,11′-dioxo-1′,4′,5′,11′-tetrahydro-3′H,4H,7′H-spiro[isoxazole-5,6′-[2,7]methanopyrido[1,2-a][1,4]diazonine]-10′-carboxamide], the EC50 (usually the concentration needed to bring the measured effect to its halfway point) in the series with HIV-1 (IIIB) (setting [1]) came out at 1.6 nM; in the series with pLAI reporter virus (read-out: RLUC 50% HS EC50), 27.4 nM; in the series with pLAI reporter virus (read-out: RLUC CCM EC50), 0.4 nM. In the series “in vitro”, this molecule had a CC50 at 5 days of 25800 nM.
The matching figures for `CC1=NO[C@@]2(CC[C@H](C)N3C[C@H]2n2cc(C(=O)NCc4ccc(F)c(Cl)c4F)c(=O)c(O)c2C3=O)C1` [Example 6, (3′S,5S,7′R)—N-(3-chloro-2,4-difluorobenzyl)-12′-hydroxy-3,3′-dimethyl-1′,11′-dioxo-1′,4′,5′,11′-tetrahydro-3′H,4H,7′H-spiro[isoxazole-5,6′-[2,7]methanopyrido[1,2-a][1,4]diazonine]-10′-carboxamide]: 0.5 nM, 543 nM, 0.2 nM and 9280 nM.
For the molecule `CC(C)C1=NO[C@@]2(CC[C@H](C)N3C[C@H]2n2cc(C(=O)NCc4ccc(F)cc4F)c(=O)c(O)c2C3=O)C1` [Example 7, (3′S,5S,7′R)—N-(2,4-difluorobenzyl)-12′-hydroxy-3-isopropyl-3′-methyl-1′,11′-dioxo-1′,4′,5′,11′-tetrahydro-3′H,4H,7′H-spiro[isoxazole-5,6′-[2,7]methanopyrido[1,2-a][1,4]diazonine]-10′-carboxamide], the EC50 in the series with HIV-1 (IIIB) (setting [1]) turned out to be 1.9 nM; with pLAI reporter virus (read-out: RLUC 50% HS EC50) it was 1.6 nM; with pLAI reporter virus (read-out: RLUC CCM EC50) it was 0.5 nM. This molecule also showed a CC50 at 5 days in the series “in vitro” of 38200 nM.
As for `CCC1=NO[C@@]2(CC[C@H](C)N3C[C@H]2n2cc(C(=O)NCc4ccc(F)cc4F)c(=O)c(O)c2C3=O)C1` [Example 8, (3′S,5S,7′R)—N-(2,4-difluorobenzyl)-3-ethyl-12′-hydroxy-3′-methyl-1′,11′-dioxo-1′,4′,5′,11′-tetrahydro-3′H,4H,7′H-spiro[isoxazole-5,6′-[2,7]methanopyrido[1,2-a][1,4]diazonine]-10′-carboxamide], the EC50 with HIV-1 (IIIB) (setting [1]) is 0.8 nM; in the series with pLAI reporter virus (read-out: RLUC 50% HS EC50), 75.2 nM; with pLAI reporter virus (read-out: RLUC CCM EC50), 0.2 nM. Moreover, the CC50 at 5 days in “in vitro” was 14800 nM.
For `C[C@H]1CC[C@]2(CC(CC(F)(F)F)=NO2)[C@H]2CN1C(=O)c1c(O)c(=O)c(C(=O)NCc3c(F)cc(F)cc3F)cn12` [Example 9], the EC50 in the series on HIV-1 (IIIB) (setting [1]) worked out at 0.8 nM; in the series on pLAI reporter virus (read-out: RLUC 50% HS EC50) it was 146 nM; in the series on pLAI reporter virus (read-out: RLUC CCM EC50), 0.5 nM. In the series “in vitro”, the CC50 at 5 days stood at 10200 nM.
Consider `C[C@H]1CC[C@]2(CC(CCCCCl)=NO2)[C@H]2CN1C(=O)c1c(O)c(=O)c(C(=O)NCc3c(F)cc(F)cc3F)cn12` [Example 10, (3′S,5S,7′R)-3-(4-chlorobutyl)-12′-hydroxy-3′-methyl-1′,11′-dioxo-N-(2,4,6-trifluorobenzyl)-1′,4′,5′,11′-tetrahydro-3′H,4H,7′H-spiro[isoxazole-5,6′-[2,7]methanopyrido[1,2-a][1,4]diazonine]-10′-carboxamide], for which the values for the EC50 in the series with HIV-1 (IIIB) (setting [1]), in the series on pLAI reporter virus (read-out: RLUC 50% HS EC50) and in the series on pLAI reporter virus (read-out: RLUC CCM EC50) were 1.7 nM, 5.5 nM and 1 nM, respectively. The CC50 at 5 days in the series “in vitro” amounted to 5860 nM.
In the case of `C[C@H]1CC[C@]2(CC(c3ccccc3)=NO2)[C@H]2CN1C(=O)c1c(O)c(=O)c(C(=O)NCc3ccc(F)cc3F)cn12` [Example 11, (3′S,5S,7′R)—N-(2,4-difluorobenzyl)-12′-hydroxy-3′-methyl-1′,11′-dioxo-3-phenyl-1′,4′,5′,11′-tetrahydro-3′H,4H,7′H-spiro[isoxazole-5,6′-[2,7]methanopyrido[1,2-a][1,4]diazonine]-10′-carboxamide], the concentration giving a half-maximal response (EC50) was found to be 1.8 nM with HIV-1 (IIIB) (setting [1]), 15.4 nM in the series with pLAI reporter virus (read-out: RLUC 50% HS EC50) and 1.7 nM with pLAI reporter virus (read-out: RLUC CCM EC50). In the series “in vitro”, this molecule had a CC50 at 5 days of 8730 nM.
On to `C[C@H]1CC[C@]2(CC(Cc3ccccc3)=NO2)[C@H]2CN1C(=O)c1c(O)c(=O)c(C(=O)NCc3ccc(F)cc3F)cn12` [Example 12, (3′S,5S,7′R)-3-benzyl-N-(2,4-difluorobenzyl)-12′-hydroxy-3′-methyl-1′,11′-dioxo-1′,4′,5′,11′-tetrahydro-3′H,4H,7′H-spiro[isoxazole-5,6′-[2,7]methanopyrido[1,2-a][1,4]diazonine]-10′-carboxamide], for which the 50% effective concentration (EC50) in the series with HIV-1 (IIIB) was 1.7 nM; in the series on pLAI reporter virus (read-out: RLUC 50% HS EC50) it was 35.6 nM; in the series on pLAI reporter virus (read-out: RLUC CCM EC50) it was 1.1 nM. The CC50 in the series “in vitro” came out at 23500 nM.
On to `C[C@H]1CC[C@]2(CC(c3ccccn3)=NO2)[C@H]2CN1C(=O)c1c(O)c(=O)c(C(=O)NCc3ccc(F)cc3F)cn12` [Example 13, (3′S,5S,7′R)—N-(2,4-difluorobenzyl)-12′-hydroxy-3′-methyl-1′,11′-dioxo-3-(pyridin-2-yl)-1′,4′,5′,11′-tetrahydro-3′H,4H,7′H-spiro[isoxazole-5,6′-[2,7]methanopyrido[1,2-a][1,4]diazonine]-10′-carboxamide], for which the 50% effective concentration (EC50) with HIV-1 (IIIB) (setting [1]) amounted to 4.3 nM; with pLAI reporter virus (read-out: RLUC 50% HS EC50), 2.1 nM; in the series on pLAI reporter virus (read-out: RLUC CCM EC50) it was 1.5 nM. Further, the CC50 at 5 days in “in vitro” is no less than 50000 nM.
`C[C@H]1CC[C@]2(CC(c3cccnc3)=NO2)[C@H]2CN1C(=O)c1c(O)c(=O)c(C(=O)NCc3ccc(F)cc3F)cn12` [Example 14, (3′S,5S,7′R)—N-(2,4-difluorobenzyl)-12′-hydroxy-3′-methyl-1′,11′-dioxo-3-(pyridin-3-yl)-1′,4′,5′,11′-tetrahydro-3′H,4H,7′H-spiro[isoxazole-5,6′-[2,7]methanopyrido[1,2-a][1,4]diazonine]-10′-carboxamide]: the results for the concentration giving a half-maximal response (EC50) with HIV-1 (IIIB) (setting [1]), with pLAI reporter virus (read-out: RLUC 50% HS EC50) and in the series on pLAI reporter virus (read-out: RLUC CCM EC50) were 1.6 nM, 4.1 nM and 0.8 nM, respectively. This molecule also showed a CC50 at 5 days in “in vitro” of 16700 nM.
Consider `C[C@H]1CC[C@]2(CC(C3CC3)=NO2)[C@H]2CN1C(=O)c1c(O)c(=O)c(C(=O)NCc3ccc(F)cc3F)cn12` [Example 15, (3′S,5S,7′R)-3-cyclopropyl-N-(2,4-difluorobenzyl)-12′-hydroxy-3′-methyl-1′,11′-dioxo-1′,4′,5′,11′-tetrahydro-3′H,4H,7′H-spiro[isoxazole-5,6′-[2,7]methanopyrido[1,2-a][1,4]diazonine]-10′-carboxamide], for which the EC50 stood at 2.4 nM in the series with HIV-1 (IIIB) (setting [1]), 3.8 nM in the series on pLAI reporter virus (read-out: RLUC 50% HS EC50) and 0.8 nM with pLAI reporter virus (read-out: RLUC CCM EC50). Moreover, in the series “in vitro”, the CC50 at 5 days was no less than 50000 nM.
As to `C[C@H]1CC[C@]2(CC(CO)=NO2)[C@H]2CN1C(=O)c1c(O)c(=O)c(C(=O)NCc3ccc(F)cc3F)cn12` [Example 16, (3′S,5S,7′R)—N-(2,4-difluorobenzyl)-12′-hydroxy-3-(hydroxymethyl)-3′-methyl-1′,11′-dioxo-1′,4′,5′,11′-tetrahydro-3′H,4H,7′H-spiro[isoxazole-5,6′-[2,7]methanopyrido[1,2-a][1,4]diazonine]-10′-carboxamide], the EC50 in the series on HIV-1 (IIIB) (setting [1]) amounted to 2.6 nM; with pLAI reporter virus (read-out: RLUC 50% HS EC50) it was 52.9 nM; with pLAI reporter virus (read-out: RLUC CCM EC50), 2.8 nM. Also, the CC50 at 5 days in the series “in vitro” turned out to be 49400 nM.
Turning to `C[C@H]1CC[C@]2(CC(CF)=NO2)[C@H]2CN1C(=O)c1c(O)c(=O)c(C(=O)NCc3ccc(F)cc3F)cn12` [Example 17, (3′S,5S,7′R)—N-(2,4-difluorobenzyl)-3-(fluoromethyl)-12′-hydroxy-3′-methyl-1′,11′-dioxo-1′,4′,5′,11′-tetrahydro-3′H,4H,7′H-spiro[isoxazole-5,6′-[2,7]methanopyrido[1,2-a][1,4]diazonine]-10′-carboxamide], the EC50 was 0.6 nM in the series on HIV-1 (IIIB) (setting [1]), 226 nM with pLAI reporter virus (read-out: RLUC 50% HS EC50) and 0.2 nM in the series on pLAI reporter virus (read-out: RLUC CCM EC50). Moreover, in “in vitro”, the CC50 at 5 days turned out to be 20500 nM.
In the case of `C[C@H]1CC[C@@]2(CC(CF)=NO2)[C@H]2CN1C(=O)c1c(O)c(=O)c(C(=O)NCc3ccc(F)cc3F)cn12` [Example 18, (3′S,5R,7′R)—N-(2,4-difluorobenzyl)-3-(fluoromethyl)-12′-hydroxy-3′-methyl-1′,11′-dioxo-1′,4′,5′,11′-tetrahydro-3′H,4H,7′H-spiro[isoxazole-5,6′-[2,7]methanopyrido[1,2-a][1,4]diazonine]-10′-carboxamide], the half-maximal effective concentration (EC50) was found to be 4.5 nM in the series with HIV-1 (IIIB) (setting [1]), 2.4 nM in the series on pLAI reporter virus (read-out: RLUC 50% HS EC50) and 1.6 nM with pLAI reporter virus (read-out: RLUC CCM EC50). The molecule also returned a CC50 at 5 days in the series “in vitro” of no less than 50000 nM.
With `C[C@H]1CC[C@]2(CC(CF)=NO2)[C@H]2CN1C(=O)c1c(O)c(=O)c(C(=O)NCc3c(F)cc(F)cc3F)cn12` [Example 19, (3′S,5S,7′R)-3-(fluoromethyl)-12′-hydroxy-3′-methyl-1′,11′-dioxo-N-(2,4,6-trifluorobenzyl)-1′,4′,5′,11′-tetrahydro-3′H,4H,7′H-spiro[isoxazole-5,6′-[2,7]methanopyrido[1,2-a][1,4]diazonine]-10′-carboxamide], the EC50 with HIV-1 (IIIB) is 1 nM; in the series with pLAI reporter virus (read-out: RLUC 50% HS EC50), 163 nM; in the series on pLAI reporter virus (read-out: RLUC CCM EC50), 0.2 nM. Besides, the CC50 at 5 days in “in vitro” was determined as 22900 nM.
